According to patent US9801844B2, “Methods and compositions for the treatment of cancer” (priority 2012, dated 2017):
Several values for one entry are separate records, joined by “and”; a condition that tells them apart may be missing. Equal entries are not always repeated.

Tests used:
[1] = test system: MDA-MB-453 Her2 overexpressing human breast cancer cells; assay: MTT cell proliferation assay on MDA-MB-453 cells; assay type: cell-based; conditions: for Proliferation (relative to control = 1) / % proliferation: MDA-MB-453, 96 h
Experimental: MTT assay: the MTT {3-(4,5-dimethyl-2-thiazol)-2,5-diphenyl-2H tetrazolilum bromide} (Dojindo; Tokyo, Japan) cell proliferation assay system (Roche Diagnostic, Mannheim, Germany) was used to determine the sensitivity of the various cell lines to agents. Cells were seeded at 1×10^4 cells/well in 96-well plates and allowed to attach for 24 h. The medium was replaced with fresh medium containing DMSO or compound. The cells were treated for 96 or 120 h, after which they were incubated with MTT reagents and the absorbance read at 650 and 575 nm. For cell growth assays, the data are expressed as mean+/−standard deviation. Control and treated cells were compared using the student's t-test (p<0.05).
Cells were exposed to increasing concentrations of agents for 96 h and the number of viable cells determined by the MTT assay.

MCF7/Her2-18 cells = assay: MTT cell proliferation assay on MCF7/Her2-18 cells; assay type: cell-based; conditions: Homo sapiens; MCF7/Her2-18 (45-fold increase Her2); read-out: IC50 growth inhibition
Experimental: MDA-MB-453 (ER negative, Her2 overexpressing), MDA-MB-468 (triple negative) and MCF7 (ER positive, Her2 low) cells, HT29 (p53 positive human colon cancer cells) (ATCC, Manassas, Va.) were grown in Dulbecco's Modified Eagle's medium (DMEM) (Gibco BRL Life Technologies, Inc., Rockville, Md.) containing 10% (v/v) fetal bovine serum (FBS) (Gibco BRL) at 37° C., 5% C02. SUM 149 (Her2 overexpressing, ER low) (the gift of Dr. R. Parsons, Columbia University Medical Center, New York, N.Y.) were cultivated in Ham's F-12 medium with 10% FBS. MCF7 and MCF7/Her2-18 (MCF7 cells transfected with a full length Her2 cDNA coding region, 45-fold increase Her2) were the kind gift of Dr. Dennis Slamon (Los Angeles, Calif.). These cells were maintained in RPMI supplemented with 10% FBS plus glutamine (1%) and PSF (1%) (Gibco, Rockville Md.).
MTT assay: the MTT {3-(4,5-dimethyl-2-thiazol)-2,5-diphenyl-2H tetrazolilum bromide} (Dojindo; Tokyo, Japan) cell proliferation assay system (Roche Diagnostic, Mannheim, Germany) was used to determine the sensitivity of the various cell lines to agents. Cells were seeded at 1×10^4 cells/well in 96-well plates and allowed to attach for 24 h. […] The cells were treated for 96 or 120 h, after which they were incubated with MTT reagents and the absorbance read at 650 and 575 nm. For cell growth assays, the data are expressed as mean+/−standard deviation. […]

[2] = test system: MDA-MB-468 human breast cancer cells; assay: Microarray gene expression analysis (Affymetrix, AffyLimma); assay type: cell-based; conditions: 6 h
Experimental: MDA-MB-468 cells were treated with 5 μg/mL (15 μM) or 20 μg/mL of CA for 6 or 24 h. RNA was isolated using methods known in the art. Total cellular RNA was extracted using Trizol (Invitrogen; Carlsbad, Calif.) according to the manufacturer's protocol with minor modifications, and then purified twice with Qiagen's RNeasy column. Total RNA (8 μg) was reverse transcribed with T7-(dT)24 primer and Super Script III reverse transcriptase (Invitrogen).
Microarray analysis was performed using methods known in the art. Labeled cDNA was generated from MDA-MB-468 cells and hybridized to Affymetrix […] genome arrays at Columbia University following standard Affymetrix protocols. Analysis was performed using the AffyLimmaGUI package in the open-source Bioconductor suite.
Affy-Limma analysis was used to determine the effects of carnosic acid, at a dose of 20 μg/ml and at 6 h on the gene expression pattern in MDA-MB-468 breast cancer cells. Assays were performed as described in the Materials and methods section. Fold change (log) is the mean of the ratio of hybridization signals in carnosic acid treated vs. control treated cells {40 highest M (log-fold) values; p<0.05}.
For gene expression analysis, the samples were analyzed by AffyLima analysis. The statistical significance of differential expression was calculated using the empirical Bayesian LIMMA ([…]) method of Smyth et al. (Smyth, G. K. et al., “Use of within-array replicate spots for assessing differential expression in microarray experiments.” Bioinformatics 2005; 21:2067-75, incorporated herein by reference): B=log e(odds of differential expression), the Bayesian natural (base e) log of the odds that the genes are differentially expressed.

MDA-MB-468 cells = assay: Real-time RT-PCR of specific mRNAs in MDA-MB-468 cells; assay type: cell-based, human; conditions: for increase in expression of RNA of CDKN1A: 4 μg/ml, MDA-MB-468
Experimental: Real-time RT-PCR analysis was performed on 2 technical replicates of at least 2 biological sample replicates.
Real-time quantitative RT-PCR methods were used to determine the nature of the RNA induced by treatment with CA, using the Real Time PCR machine Stratagene MX3005P QPCR System.
Real-time RT-PCR analysis was performed to examine the mode of action of CA. In MDA-MB-468 cells, CA at 4 μg/ml induced an increase in expression of RNA of the tumor suppressor gene CDKN1A; for MDA-MB-468 cells (6 h: 1.51-logfold; 24 h: 1.61-logfold) (FIG. 3A); for SUM149 cells (6 h: 2.7-logfold). CA had little effect on the expression of the tumor suppressor gene BRCA1.

SMILES: CC(C)c1cc2c(c(O)c1O)[C@@]1(C(=O)O)CCCC(C)(C)[C@@H]1CC2 [carnosic acid]
- inhibition of cell growth ([1]; 0.5 μg/ml, 96 h, MTT): no inhibition
- Proliferation (relative to control = 1) ([1]; 0.5 ug/ml, MTT): 1.07
- % proliferation ([1]; 0.5 μg/ml, MTT): 107%
- Proliferation (relative to control = 1) ([1]; 2 ug/ml, MTT): 0.989
- % proliferation ([1]; 2 μg/ml, MTT): 98.9%
- Proliferation (relative to control = 1) ([1]; 5 ug/ml, MTT): 0.915
- % proliferation ([1]; 5 μg/ml, MTT): 91.5%
- Proliferation (relative to control = 1) ([1]; 10 ug/ml, MTT): 0.758
- Proliferation (relative to control = 1) ([1]; 20 ug/ml, MTT): 0.573
- IC50 ([1]; Homo sapiens, MDA-MB-453 cells, MTT assay, read-out: IC50, concentration that caused 50% inhibition of cell proliferation): 3 µg/mL and 7 µM
- IC50 (MCF7/Her2-18 cells): 9 µg/mL and 27 µM
- number of genes altered, p<0.05 ([2]; 20 μg/ml): 124 genes
- ratio of genes activated to suppressed ([2]; 20 μg/ml): 4.6
- number of genes repressed ([2]; higher dose (20 μg/ml)): 22 genes
- number of genes whose expression is activated ([2]; higher dose (20 μg/ml)): 102 genes
- number of genes whose expression is activated ([2]; low dose (5 μg/ml), glutathione metabolism and transport genes): 3 genes
- M (log-fold) GDF15/LOC100292463 expression ([2]; probe 22577_x_at, 20 μg/ml): 3.2033 log-fold
- M (log-fold) TXNRD1 expression ([2]; probe 201266_at, 20 μg/ml): 1.6785 log-fold
- M (log-fold) ELF3 expression ([2]; probe 201510_at, 20 μg/ml): −1.3391 log-fold
- M (log-fold) HEXIM1 expression ([2]; probe 202814_s_at, 20 μg/ml): −1.2946 log-fold
- M (log-fold) GCLC expression ([2]; probe 202922_at, 20 μg/ml): 2.5514 log-fold
- M (log-fold) GCLC expression ([2]; probe 202923_s_at, 20 μg/ml): 2.3524 log-fold
- M (log-fold) HMOX1 expression ([2]; probe 203665_at, 20 μg/ml): 6.2079 log-fold
- M (log-fold) TTLL4 expression ([2]; probe 203702_s_at, 20 μg/ml): 1.4497 log-fold
- M (log-fold) GCLM expression ([2]; probe 203925_at, 20 μg/ml): 1.6079 log-fold
- M (log-fold) CDKN2C expression ([2]; probe 204159_at, 20 μg/ml): −1.5843 log-fold
- M (log-fold) PMAIP1 expression ([2]; probe 204286_s_at, 20 μg/ml): 1.5443 log-fold
- M (log-fold) KIF21B expression ([2]; probe 204411 at, 20 μg/ml): 2.0237 log-fold
- M (log-fold) CBR3 expression ([2]; probe 205379_at, 20 μg/ml): 1.4702 log-fold
- M (log-fold) CTH expression ([2]; probe 206085_s_at, 20 μg/ml): 2.3083 log-fold
- M (log-fold) ABCC2 expression ([2]; probe 206155_at, 20 μg/ml): 2.2558 log-fold
- M (log-fold) CYP4F3 expression ([2]; probe 206515 _at, 20 μg/ml): 2.4762 log-fold
- M (log-fold) AKR1B10 expression ([2]; probe 206561_s_at, 20 μg/ml): 2.3416 log-fold
- M (log-fold) SLC7A11 expression ([2]; probe 207528_s_at, 20 μg/ml): 2.3041 log-fold
- M (log-fold) ID3 expression ([2]; probe 207826_s_at, 20 μg/ml): −1.9788 log-fold
- M (log-fold) DDIT3/NR1H3 expression ([2]; probe 209383_at, 20 μg/ml): 1.8207 log-fold
- M (log-fold) GRB10 expression ([2]; probe 209409_at, 20 μg/ml): 1.6777 log-fold
- M (log-fold) RIT1 expression ([2]; probe 209882_at, 20 μg/ml): 1.3792 log-fold
- M (log-fold) SLC7A11 expression ([2]; probe 209921_at, 20 μg/ml): 3.7330 log-fold
- M (log-fold) MAP2 expression ([2]; probe 210015_s_at, 20 μg/ml): 1.9566 log-fold
- M (log-fold) AKR1C2 expression ([2]; probe 211653_x_at, 20 μg/ml): 4.1458 log-fold
- M (log-fold) ZC3HAV1 expression ([2]; probe 213051_at, 20 μg/ml): −1.5819 log-fold
- M (log-fold) AKR1C1 expression ([2]; probe 216594_x_at, 20 μg/ml): 3.8405 log-fold
- M (log-fold) CTH expression ([2]; probe 217127_at, 20 μg/ml): 2.3586 log-fold
- M (log-fold) SLC7A11 expression ([2]; probe 217678_at, 20 μg/ml): 3.9492 log-fold
- M (log-fold) NAMPT expression ([2]; probe 217738_at, 20 μg/ml): 1.4857 log-fold
- M (log-fold) NAMPT expression ([2]; probe 217739_s_at, 20 μg/ml): 1.7329 log-fold
- M (log-fold) PHLDA1 expression ([2]; probe 217996_at, 20 μg/ml): 1.9833 log-fold
- M (log-fold) SLC38A2 expression ([2]; probe 218041_x_at, 20 μg/ml): 1.2613 log-fold
- M (log-fold) TRIB3 expression ([2]; probe 218145_at, 20 μg/ml): 1.6338 log-fold
- M (log-fold) KCTD15 expression ([2]; probe 218553_s_at, 20 μg/ml): 1.3491 log-fold
- M (log-fold) OSGIN1 expression ([2]; probe 219475_at, 20 μg/ml): 1.9508 log-fold
- M (log-fold) SLC38A2 expression ([2]; probe 220924_s_at, 20 μg/ml): 1.2541 log-fold
- M (log-fold) RIPK4 expression ([2]; probe 221215_s_at, 20 μg/ml): −1.2540 log-fold
- M (log-fold) C9orf91 expression ([2]; probe 221865_at, 20 μg/ml): 1.3335 log-fold
- M (log-fold) ALDH1A3 expression ([2]; probe 222168_at, 20 μg/ml): −1.4627 log-fold
- increase in expression of RNA of CDKN1A (MDA-MB-468 cells; 6 h): 1.51 logfold
- increase in expression of RNA of CDKN1A (MDA-MB-468 cells; 24 h): 1.61 logfold
- effect on expression of the vitamin D receptor (MDA-MB-468 cells; 6 h, real-time RT-PCR): slight increase in expression
- effect on expression of BRCA1 (MDA-MB-468 cells; real-time RT-PCR): little effect
- effect on expression of CYP24A1 (MDA-MB-468 cells; real-time RT-PCR): significant increase in expression
